Among the data in patent publication US4323568A, “Pharmaceutically active (omega-aminoalkoxy)bibenzyls” (Mitsubishi Chemical Industries Limited, priority 1977, dated 1982) are IC50 and LD50 values, retold here.

In data set [1] the test system is rabbit blood platelet aggregation. The experiment in a line: inhibition of collagen-induced platelet aggregation in rabbit platelet-rich plasma (turbidometric method of Born). The format is cell-based. The note with it: Oryctolagus cuniculus, collagen 10 to 15 μg/ml, 37° C., 3 min preincubation, read-out: I50 (concentration inhibiting platelet aggregation by 50 percent). The protocol:
Evaluation of the compounds of this invention for their activity against platelet aggregation was carried out according to a turbidometric method described by G. V. R. Born, Nature 194 927 (1962). Platelet aggregation was measured using platelet-rich plasma prepared from citrated blood which was collected from a carotid artery of male white rabbits of Japanese native kind. A suspension of collagen (bovine Achilles tendon collagen, Sigma) in saline was used to cause platelet aggregation. The aggregation of rabbit blood platelet was induced by adding the suspension of collagen to give 10 to 15 μg collagen per milliliter. At this time, the tests were conducted at 37° C. at levels of 4×10^5 platelet/mm^3. A solution of compounds of this invention in saline was added to the platelet-rich plasma. After three minutes of preincubation with the platelet-rich plasma, collagen was added to cause platelet aggregation. Percent inhibition was calculated by comparison with controls.
Using the above procedure, the compounds of this invention were compared to aspirin.
(§1) The concentration of the compound in micromoles inhibiting platelet aggregation by 50 percent (I50) and LD50 which was calculated by Litchfield-Wilcoxon method are shown in Table 1.

Data set [2] in a line: LD50 i.p. in mice, calculated by Litchfield-Wilcoxon method. The settings on record: mouse, in vivo, ip, read-out: ID50 (the source's name). Here is the method:
as §1

Each structure is given as a SMILES string. Where a name gives a salt, the structure may show the parent alone.

On to `CC(=O)Oc1ccccc1C(=O)O` [Aspirin, aspirin, reference compound], for which the IC50 in data set [1] is 25 µM. Consider `CN(C)CCOc1ccccc1CCc1ccccc1` [Example 1, 2-(2-dimethylaminoethoxy)bibenzyl hydrochloride], for which, in data set [1], the IC50 worked out at 0.6 µM. The LD50 in data set [2] was 165 mg/kg. On to `CN(C)CCCOc1ccccc1CCc1ccccc1` [Example 2, 2-(3-dimethylaminopropoxy)bibenzyl hydrochloride], for which, in data set [1], the IC50 came to 0.6 µM. With `CN(C)CCCCOc1ccccc1CCc1ccccc1` [Example 3, 2-(4-dimethylaminobutoxy)bibenzyl], the IC50 in data set [1] was 0.6 µM. Further, the LD50 in data set [2] is 215 mg/kg. As for `CN(C)CCCCCOc1ccccc1CCc1ccccc1` [Example 4, 2-(5-dimethylaminopentyloxy)bibenzyl], the IC50 in data set [1] was 0.8 µM. For the same molecule, in data set [2], the LD50 was 205 mg/kg.

Consider `CN(C)CCCCCCOc1ccccc1CCc1ccccc1` [Example 5, 2-(6-dimethylaminohexyloxy)bibenzyl], for which, in data set [1], the IC50 was 1 µM. As to `CNCCCCOc1ccccc1CCc1ccccc1` [Example 6, 2-(4-methylaminobutoxy)bibenzyl], the IC50 in data set [1] is 7 µM. For the molecule `CCCCN(C)CCCCOc1ccccc1CCc1ccccc1` [Example 7, 2-[4-(N-methyl-N-butylamino)butoxy]bibenzyl], in data set [1], the IC50 was determined as 3 µM.

As for `CN(CCO)CCCCOc1ccccc1CCc1ccccc1` [Example 8, 2-{4-[N-methyl-N-(2-hydroxyethyl)amino]butoxy}bibenzyl], the IC50 in data set [1] turned out to be 2 µM. In the case of `c1ccc(CCc2ccccc2OCCCCN2CCCCC2)cc1` [Example 9, 2-(4-piperidinobutoxy)bibenzyl], the IC50 in data set [1] turned out to be 1 µM. For the molecule `c1ccc(CCc2ccccc2OCCCCN2CCOCC2)cc1` [Example 10, 2-(4-morpholinobutoxy)bibenzyl], the IC50 in data set [1] amounted to 10 µM. As to `c1ccc(CCc2ccccc2OCCCCN2CCNCC2)cc1` [Example 11, 2-[4-(1-piperazinyl)butoxy]bibenzyl dihydrochloride], in data set [1], the IC50 was found to be 2 µM. On the same count and under the same terms, the figure for `c1ccc(CCc2ccccc2OCCCCN2CCCC2)cc1` [Example 12, 2-[4-(1-pyrrolidinyl)butoxy]bibenzyl] is 0.7 µM; for `OCCN1CCN(CCCCOc2ccccc2CCc2ccccc2)CC1` [Example 13, 2-{4-[4-(2-hydroxyethyl)-1-piperazinyl]butoxy}bibenzyl] it is 3 µM; for `OCCN(CCO)CCCCOc1ccccc1CCc1ccccc1` [Example 14, 2-[4-bis(2-hydroxyethyl)aminobutoxy]bibenzyl] it is 5 µM. With `CCN(CC)CCOc1ccccc1CCc1ccccc1` [Example 15, 2-(2-diethylaminoethoxy)bibenzyl], the IC50 in data set [1] is 0.5 µM.

Consider `CCN(CC)CCCOc1ccccc1CCc1ccccc1` [Example 16, 2-(3-diethylaminopropoxy)bibenzyl], for which the IC50 in data set [1] was 0.5 µM. In addition, in data set [2], the LD50 was 187 mg/kg. For the molecule `CCN(CC)CCCCOc1ccccc1CCc1ccccc1` [Example 17, 2-(4-diethylaminobutoxy)bibenzyl], the IC50 in data set [1] stood at 0.8 µM. Still for that read-out and setting: the figure for `CCN(CC)CCCCCOc1ccccc1CCc1ccccc1` [Example 18, 2-(5-diethylaminopentyloxy)bibenzyl] is 1 µM. The same measure, in the same setting: the result for `CCN(CC)CCCCCCOc1ccccc1CCc1ccccc1` [Example 19, 2-(6-diethylaminohexyloxy)bibenzyl] reads 1 µM; that for `CN(C)CCCOc1ccc(CCc2ccccc2)cc1` [Example 20, 4-(3-dimethylaminopropoxy)bibenzyl], 2 µM; that for `CN(C)CCCCOc1ccc(CCc2ccccc2)cc1` [Example 21, 4-(4-dimethylaminobutoxy)bibenzyl], 2 µM. For `Cl.O=C(O)C1CCN(CCCCOc2ccccc2CCc2ccccc2)CC1` [Example 22, 2-[4-(4-carboxypiperidino)butoxy]bibenzyl hydrochloride], in data set [1], the IC50 was 5.5 µM. In addition, in data set [2], the LD50 is 500 mg/kg. Consider `NC(=O)C1CCN(CCCCOc2ccccc2CCc2ccccc2)CC1` [Example 24, 2-[4-(4-carbamoylpiperidino)butoxy]bibenzyl], for which, in data set [1], the IC50 was determined as 1.5 µM. In addition, the LD50 in data set [2] was 500 mg/kg. `NC(=O)C1CCN(CCOc2ccccc2CCc2ccccc2)CC1` [Example 25, 2-[2-(4-carbamoylpiperidino)ethoxy]bibenzyl]: the IC50 in data set [1] is 2.5 µM. On to `CN(C)C(=O)C1CCN(CCCCOc2ccccc2CCc2ccccc2)CC1` [Example 26, 2-[4-(4-dimethylcarbamoylpiperidino)butoxy]bibenzyl hydrochloride], for which, in data set [1], the IC50 was found to be 3 µM. Take `CCNC(=O)C1CCN(CCCCOc2ccccc2CCc2ccccc2)CC1` [Example 27, 2-[4-(4-ethylcarbamoylpiperidino)butoxy]bibenzyl]: the IC50 in data set [1] was found to be 2.5 µM. Consider `NC(=O)C1CCCN(CCCCOc2ccccc2CCc2ccccc2)C1` (stereo not shown) [Example 29, 2-[4-(3-carbamoylpiperidino)butoxy]bibenzyl], for which the IC50 in data set [1] is 1.4 µM. For the same molecule, the LD50 in data set [2] was 270 mg/kg.

Consider `NC(=O)C1CCN(CCCOc2ccccc2CCc2ccccc2)CC1` [Example 30, 2-[3-(4-carbamoylpiperidino)propoxy]bibenzyl], for which the IC50 in data set [1] came out at 2 µM. On the same count and under the same terms, the result for `COc1ccccc1CCc1ccccc1OCCN(C)C` [Example 31, 2-(2-dimethylaminoethoxy)-2'-methoxybibenzyl] reads 0.6 µM.

With `COc1ccccc1CCc1ccccc1OCCCCN(C)C` [Example 32, 2-(4-dimethylaminobutoxy)-2'-methoxybibenzyl], the IC50 in data set [1] is 0.9 µM. Further, the LD50 in data set [2] was 250 mg/kg. For the molecule `COc1cccc(CCc2ccccc2OCCCCN(C)C)c1` [Example 34, 2-(4-dimethylaminobutoxy)-3'-methoxybibenzyl], the IC50 in data set [1] is 0.55 µM. Further, the LD50 in data set [2] was 200 mg/kg. For `COc1cccc(CCc2ccccc2OCCCCN2CCN(CCO)CC2)c1` [Example 35, 2-{4-[4-(2-hydroxyethyl)-1-piperazinyl]butoxy}-3'-methoxybibenzyl], the IC50 in data set [1] was 1.2 µM. Same read-out and setting: the figure for `CCOc1ccccc1CCc1ccccc1OCCCCN(CC)CC` [Example 37, 2-(4-diethylaminobutoxy)-2'-ethoxybibenzyl] is 1 µM. As for `CN(C)CCCCOc1ccccc1CCc1ccccc1O` [Example 38, 2-(4-dimethylaminobutoxy)-2'-hydroxybibenzyl], the IC50 in data set [1] is 0.9 µM. In data set [2], the LD50 is 167 mg/kg.

As for `COC(=O)c1ccccc1CCc1ccccc1OCCN(C)C` [Example 41, 2-(2-dimethylaminoethoxy)-2'-methoxycarbonylbibenzyl], the IC50 in data set [1] worked out at 0.5 µM. Also, the LD50 in data set [2] was 130 mg/kg. Turning to `CN(C)CCCOc1ccccc1CCc1ccc(Cl)cc1` [Example 44, 2-(3-dimethylaminopropoxy)-4'-chlorobibenzyl], the IC50 in data set [1] stood at 0.6 µM. In addition, in data set [2], the LD50 is 185 mg/kg. As to `OCCN1CCN(CCCCOc2ccccc2CCc2ccc(Cl)cc2)CC1` [Example 45, 2-{4-[4-(2-hydroxyethyl)-1-piperazinyl]butoxy}-4'-chlorobibenzyl], the IC50 in data set [1] stood at 3 µM. With `Clc1ccc(CCc2ccccc2OCCCCN2CCCC2)cc1` [Example 46, 2-[4-(1-pyrrolidinyl)butoxy]-4'-chlorobibenzyl], the IC50 in data set [1] turned out to be 1.3 µM. Turning to `CN(C)CCCCOc1ccccc1CCc1ccccc1Cl.Cl` [Example 47, 2-(4-dimethylaminobutoxy)-2'-chlorobibenzyl hydrochloride], in data set [1], the IC50 came out at 0.5 µM. Also, the LD50 in data set [2] is 170 mg/kg. The like results for `CN(C)CCCCCCOc1ccccc1CCc1ccccc1Cl` [Example 51, 2-(6-dimethylaminohexyloxy)-2'-chlorobibenzyl] were, in that order, 0.8 µM and 250 mg/kg.

With `CN(C)CCCOc1ccccc1CCc1ccccc1Cl` [Example 52, 2-(3-dimethylaminopropoxy)-2'-chlorobibenzyl], the IC50 in data set [1] worked out at 0.63 µM. Regarding `CN(C)CCCOc1ccccc1CCc1ccc(Cl)c(Cl)c1.Cl` [Example 54, 2-(3-dimethylaminopropoxy)-3',4'-dichlorobibenzyl hydrochloride], the IC50 in data set [1] turned out to be 0.6 µM. Moreover, the LD50 in data set [2] was 250 mg/kg.

On to `CN(C)CCCCOc1ccccc1CCc1ccc(F)cc1` [Example 55, 2-(4-dimethylaminobutoxy)-4'-fluorobibenzyl], for which the IC50 in data set [1] was determined as 0.75 µM. Further, the LD50 in data set [2] was 185 mg/kg. As for `NC(=O)C1CCN(CCCCOc2ccccc2CCc2ccc(F)cc2)CC1` [Example 56, 2-[4-(4-carbamoylpiperidino)butoxy]-4'-fluorobibenzyl], the IC50 in data set [1] turned out to be 1.3 µM. The LD50 in data set [2] was 450 mg/kg.

Turning to `OC1CCN(CCCCOc2ccccc2CCc2ccc(F)cc2)CC1` [Example 58, 2-[4-(4-hydroxypiperidino)butoxy]-4'-fluorobibenzyl], the IC50 in data set [1] stood at 1.1 µM. Regarding `Cc1ccccc1CCc1ccccc1OCCCCN(C)C` [Example 61, 2-(4-dimethylaminobutoxy)-2'-methylbibenzyl], the IC50 in data set [1] worked out at 1.1 µM.

As to `Cc1ccccc1CCc1ccccc1OCCCCN1CCC(C(N)=O)CC1` [Example 63, 2-[4-(4-carbamoylpiperidino)butoxy]-2'-methylbibenzyl], the IC50 in data set [1] was determined as 2 µM. Same read-out and setting: the result for `CN(C)CCCOc1ccccc1CCc1ccc(N(C)C)cc1` [Example 64, 2-(3-dimethylaminopropoxy)-4'-dimethylaminobibenzyl] reads 0.35 µM. Still for that read-out and setting: the figure for `COc1cccc(CCc2ccccc2)c1OCCCCN(C)C` [Example 67, 2-(4-dimethylaminobutoxy)-3-methoxybibenzyl] is 3 µM.
